Where two headings read alike, the source gives them in different places.
Legend:
Assay type in all cases: cell-based
[1] = tested on: human cannabinoid receptor type II (CB2R); test: cell-based; details: dual biosensor screen at 1 μM
Description: (§1) To efficiently transduce signals from the human machinery to the yeast pathway, the yeast 5 C-terminal residues of the G-alpha gene GPA1 were replaced with the sequence of the Gαi3 human G-alpha variant as previously described (Brown et al. 2000). ZsGreen1 was used to report on the activity of the pathway, integrating it into the genome in place of the pheromone-inducible Fig1 gene (FIG. 14A).
(§2) Yeast colonies were picked and grown overnight to saturation in pH 5.8 SD-His media in a 2.2 mL deep well plate (Axygen) grown in a plate-shaking incubator (30° C., 1000 rpm, 3 mm orbital). In the morning cultures were diluted 1:10 or 1:25 in SD-His media buffered to pH 7.1 with 100 mM MOPSO (unless otherwise specified). Ligands were added to the culture and incubated with shaking for 8 hours. Cells were then washed three times with ice-cold Tris buffer (pH 7) and diluted 1:20 for cytometry. All cytometry was performed on a Sony SA3800 spectral analyzer. Each sample was tested for 10,000 events, and read at a rate of 1,000 events per second. All assays as reported here were filtered only for singlet populations.

[2] = target: human cannabinoid receptor type II (CB2R) (Homo sapiens, UniProt P34972); test: cell-based; set-up: Normalized Activity at 1 μM, CB2R; other: PINACA compounds, 1 μM; Normalized Activity at 1 μm, CB2R; other: 5-fluoro PB-22 isomers, 1 μm; other: MFα-CB2R, ST03 sterol strain, pH 5.8; activity against CB2R; other: at 10 nM, dose response; preference at CB2R of ADB-BINACA over AB-PINACA; signaling at CB2R in synthetic cannabinoid screen; fused on or other part: yeast mating factor alpha (MFα) pre-pro leader fused at the N-terminus as a trafficking signal; details: for EC50: MFα-CB2R, ST03 sterol strain, pH 5.8; for signaling at CB2R in synthetic cannabinoid screen: compounds at 1 μM; for Normalized Activity at 1 μM, CB2R: PINACA compounds
Chain of human cannabinoid receptor type II (CB2R) (Homo sapiens, UniProt P34972) (P34972 whole entry, the tested form may be a part): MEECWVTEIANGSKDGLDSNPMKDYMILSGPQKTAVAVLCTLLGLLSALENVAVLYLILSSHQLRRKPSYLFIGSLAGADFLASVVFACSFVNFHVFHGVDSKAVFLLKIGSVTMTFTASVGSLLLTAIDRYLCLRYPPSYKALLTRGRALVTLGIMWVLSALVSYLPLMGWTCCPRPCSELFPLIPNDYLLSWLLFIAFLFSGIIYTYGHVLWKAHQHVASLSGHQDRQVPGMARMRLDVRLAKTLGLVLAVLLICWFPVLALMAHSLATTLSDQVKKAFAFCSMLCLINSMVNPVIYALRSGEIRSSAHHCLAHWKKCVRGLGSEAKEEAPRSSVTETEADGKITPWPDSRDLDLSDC
Description: as §1, §2

[3] = target: T1, human Cannabinoid Receptor 1 (CB1R) (Homo sapiens, UniProt P21554); details: for Normalized Activity at 1 μm, CB1R: 5-fluoro PB-22 isomers; for maximal signaling in CB1R dose response: dose-response curves; for EC50: read-out: EC50 at CB1R, synthetic cannabinoid dose response; for Normalized Activity at 1 μM, CB1R: PINACA compounds
T1 construct: syn-prepro (synthetic yeast pre-pro secretion leader) (N); expressed in transfected cells; host or cells: Saccharomyces cerevisiae BY4741-derived strain (ste2, sst2, far1 knocked out); Gpa1-Gαi3 chimera
T1 sequence (P21554 90-472): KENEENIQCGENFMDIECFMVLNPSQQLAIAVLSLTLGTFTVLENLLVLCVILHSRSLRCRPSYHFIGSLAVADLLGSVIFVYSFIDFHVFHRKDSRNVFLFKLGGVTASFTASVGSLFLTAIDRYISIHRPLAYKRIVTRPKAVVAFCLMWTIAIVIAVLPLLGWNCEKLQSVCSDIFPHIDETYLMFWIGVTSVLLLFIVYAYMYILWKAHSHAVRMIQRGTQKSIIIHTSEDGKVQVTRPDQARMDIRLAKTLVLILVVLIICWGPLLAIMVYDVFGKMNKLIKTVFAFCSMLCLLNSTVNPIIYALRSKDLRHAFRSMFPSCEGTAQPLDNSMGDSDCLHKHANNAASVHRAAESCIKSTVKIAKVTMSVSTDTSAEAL

[4] = read-out: EC50 at CB2R, dose response
[5] = syn-prepro-Δ89-CB1R, wild type ergosterol strain

CC1(C)C(C(=O)c2cn(CC3CCOCC3)c3ccccc23)C1(C)C [A-834735]
receptor bias CB2R versus CB1R [1]: CB2R-biased | EC50 [2, 4]: 7.42 nM

CC(C)[C@H](NC(=O)c1cn(Cc2ccccc2)c2ccccc12)C(N)=O [AB-BICA]
signaling at CB1R in synthetic cannabinoid screen relative to 100 μM ACEA positive control ([3]; compounds at 1 μM): CB1R agonists | signaling at CB2R in synthetic cannabinoid screen [2]: poor CB2R signalers

O=C(Oc1ccc2cccnc2c1)c1cn(CCCCCF)c2ccccc12
Normalized Activity at 1 μm, CB1R [3]: 0.550

CC(C)[C@H](NC(=O)c1nn(Cc2ccc(F)cc2)c2ccccc12)C(N)=O [AB-FUBINACA]
relative fluorescence of the ACEA positive control at CB1R ([3]; compounds at 10 nM, 100 μM ACEA control): strong signaling | signaling at CB1R in synthetic cannabinoid screen relative to 100 μM ACEA positive control ([3]; compounds at 1 μM): maximal fluorescence | maximal signaling in CB1R dose response [3]: high maximal signaling | EC50 [3, 5]: 0.66 nM

CC(C)c1c(O)ccc2c1CC[C@H]1C(C)(C)CCC[C@]21C [Totarol]
EC50 ([2]; EC50 at CB2R, dose response): 485 nM | activity against CB2R ([2]; at 10 nM, dose response): active

CCCCCn1nc(C(=O)NC(C)(C(N)=O)C(C)C)c2ccccc21 (stereo not shown)
Normalized Activity at 1 μM, CB1R [3]: 0.810 | Normalized Activity at 1 μM, CB2R [2]: 0.303

CC(C)(C)C(NC(=O)c1c2ccccc2nn1CCCCCF)C(N)=O (single isomer, unassigned; isomer 2) [5-fluoro ADB-PINACA isomer 2]
EC50 at CB1R, synthetic cannabinoid dose response [3, 5]: low nanomolar range | EC50 [3, 5]: 2.25 nM

COc1ccc(C(=O)c2c(C)n(CCN3CCOCC3)c3cc(Br)ccc23)cc1 [WIN54,461]
signaling at CB1R in synthetic cannabinoid screen relative to 100 μM ACEA positive control ([3]; compounds at 1 μM): at most approximately half the relative fluorescence of the ACEA positive control

CC(C)(C)C(NC(=O)c1cn(Cc2ccccc2)c2ccccc12)C(N)=O (stereo not shown)
Normalized Activity at 1 μM, CB1R [3]: 0.842 | Normalized Activity at 1 μM, CB2R [2]: 0.255

CCCC(NC(=O)c1nn(Cc2ccc(F)cc2)c2ccccc12)C(N)=O (single isomer, unassigned; isomer 1) [AB-FUBINACA isomer 1]
signaling at CB1R in synthetic cannabinoid screen relative to 100 μM ACEA positive control ([3]; compounds at 1 μM): greatest activity of all the isomers | maximal signaling in CB1R dose response [3]: high maximal signaling | EC50 [3, 5]: 0.01 nM

Cc1c(C(=O)c2ccccc2)c(N)c(-c2ccccc2)n1Cc1ccc(Cl)cc1 [URB447]
signaling at CB1R in synthetic cannabinoid screen relative to 100 μM ACEA positive control ([3]; compounds at 1 μM): at most approximately half the relative fluorescence of the ACEA positive control

COCCn1c(C)c(C)s/c1=N\C(=O)C1C(C)(C)C1(C)C [A-836339, 2,2,3,3-Tetramethyl-cyclopropanecarboxylic Acid [3-(2-Methoxy-ethyl)-4,5-dimethyl-3H-thiazol-(2Z)-ylidene]-amide]
EC50 [2, 4]: 16.3 nM

O=C(Oc1cnc2ccccc2c1)c1cn(CCCCCF)c2ccccc12
Normalized Activity at 1 μm, CB1R [3]: 0.530

CCCCCn1nc(C(=O)N[C@H](C(N)=O)[C@@H](C)CC)c2ccccc21 (single isomer, unassigned)
Normalized Activity at 1 μM, CB1R [3]: 0.753 | Normalized Activity at 1 μM, CB2R [2]: 0.568

CC1(C)C(C(=O)c2cn(CCN3CCOCC3)c3ccccc23)C1(C)C [A-796260]
signaling at CB2R in synthetic cannabinoid screen [2]: among the top CB2R targets

CC(C)=CCCC(C)CCO (stereo not drawn) [(+)-β-Citronellol]
signaling at CB1R in terpene screen ([3]; terpenes at 100 μM, normalized to 100 μM ACEA): activate CB1R

O=C(Oc1ccc2ncccc2c1)c1cn(CCCCCF)c2ccccc12
Normalized Activity at 1 μm, CB1R [3]: 0.500 | Normalized Activity at 1 μm, CB2R ([2]; 5-fluoro PB-22 isomers, 1 μm): 0.141

CN1CCCCC1Cn1cc(C(=O)c2cc([N+](=O)[O-])ccc2I)c2ccccc21 (stereo not shown) [AM-1241]
signaling at CB1R in synthetic cannabinoid screen relative to 100 μM ACEA positive control [3]: at most approximately half the relative fluorescence of the ACEA positive control

CCC(C(N)=O)N(C)C(=O)c1nn(Cc2ccc(F)cc2)c2ccccc12 (single isomer, unassigned; isomer 5) [AB-FUBINACA isomer 5]
signaling at CB1R in synthetic cannabinoid screen relative to 100 μM ACEA positive control ([3]; compounds at 1 μM): least GPCR activation | maximal signaling in CB1R dose response [3]: lower response | EC50 [3, 5]: 15.9 nM
